According to patent US20180008688A1, “METHOD AND COMPOSITIONS FOR ENHANCING IMMUNOTHERAPEUTIC TREATMENT OF A CANCER” (Augusta University Research Institute, Inc., priority 2016, published 2018):
Entries after “also recorded” stand apart in the source; their conditions may differ. Read-outs that look alike come from different tables or passages of the source. Peptide text beside a SMILES is read from it. * marks the point of attachment. Cbz = O=C(OCc1ccccc1)*

What was measured:
T cells = assay: Purified T cells activated with anti-CD3/CD28 with nutlin, IL-12, MG-132; type: cell-based, mouse; details: MG-132 in the presence of both nutlin and IL-12
From the text: Regulation of p53 is complex, and it can be targeted by multiple pathways besides MDM2 (Chao C. C. (2015) Clin. Chim. Acta 438: 139-147). If IL-12 is rescuing T cells from nutlin, one possibility is that IL-12 might activate an alternative pathway of p53 degradation, not dependent on MDM2. To test this, purified T cells were activated (without any antigen-presenting cells or other cells) using anti-CD3/CD28 antibodies. T cells were activated in the presence or absence of nutlin with or without addition of recombinant IL-12.
Finally, to test the hypothesis that IL-12 targeted p53 for proteolytic degradation via an alternated pathway, proteasomal function was inhibited using MG-132. T cells were activated using immobilized CD3/CD28 as above. […] CFSE proliferation tracked inversely with p53 levels. […] While MG-132 affects many intracellular pathways besides p53, these findings support the basic hypothesis that IL-12 bypasses nutlin by targeting p53 for degradation via an alternative route.

[1] = test system: B16F10, EL4, LLC, Tg(Grm1)Epv, MMTV-PyMT; type: in vivo, mouse; details: every tumor tested
From the text: Conversely, the effect of chemotherapy could be fully replaced by adoptive transfer of exogenous tumor-specific CD8^+ T cells (e.g., pmel-1 cells) activated with vaccine.

B16F10 tumors [2] = type: in vivo; details: for response of B16 melanoma tumors to chemotherapy alone: single moderate dose
Procedure: In vivo tumor studies: The B16F10 and E.G7 (EL4-OVA) cell lines were obtained from ATCC. B16-OVA (B16F10 transfected with full-length chicken ovalbumin) clone MO4 was according to Falo et al. ((1995) Nat. Med. 1: 649-653). B16F10 cells expressing EGFP protein (B16-GFP cells) were derived using lentiviral transfection. Tumor implantation was performed as described (Sharma et al., (2007) J. Clin. Invest. 117: 2570-2582), using 1×10^5 cells for B16F10 and 1×10^6 cells for other cell lines (large inocula were used to ensure rapid tumor engraftment and immune suppression). […] Tumor volume was calculated from orthogonal diameters using the formula V=L×W^2×π/6. Mice received approved euthanasia when tumors reached a size of 300 mm^2 (product of orthogonal diameters); death was never used a planned endpoint in any study.
(§1) Tumor implantation was performed as described (Sharma et al., (2007) J. Clin. Invest. 117: 2570-2582). VO-OHpic was given at 10 mg/kg/day i.p., in 10% DMSO/PBS. Cyclophosphamide was given at 150 mg/kg i.p×1 dose; and oxaliplatin at 5 mg/kg i.p×1 dose. Nutlin-3a was administered daily at 10 mg/kg/day i.p. For checkpoint blockade, mice received anti-CTLA-4 plus a cocktail of antibodies against the PD-1 pathway. Vaccines and T cell adoptive transfer studies were performed as described (Sharma et al., (2015) Sci. Advances. 1: e1500845).
VO-OHpic/CTX, nutlin-3a, oxaliplatin and immunotherapy regimens: The vanadate compound VO-OHpic (Mak et al., (2010) J. Chem. Biol. 3: 157-163) inhibits PTEN activity, and this drug was used to destabilize PTEN+Tregs during chemotherapy. Like all of the available PTEN-inhibitors, VO-OHpic can also affect other phosphatases (Spinelli et al., (2015) Adv. Biol. Regul. 57: 102-111).
VO-OHpic was given at 10 mg/kg/day i.p., in 10% DMSO/PBS. Cyclophosphamide was given at 150 mg/kg i.p×1 dose. Oxaliplatin was given at 5 mg/kg i.p×1 dose. […] For checkpoint blockade, mice received anti-CTLA-4 (clone 9D9, BioXcell) plus a cocktail of antibodies against the PD-1 pathway: anti-PD-L2, clone TY25 (Yamazaki et al., (2002) J. Immunol. 169: 5538-5545); anti-PD-1, clone J43 (Agata et al., (1996) Int. Immunol. 8: 765-772); and anti-PD-L1, clone MIH7 (Tsushima et al., (2003) Eur. J. Immunol. 33: 2773-2782). A cocktail was used in order to block the PD-1 pathway as completely as possible and thus minimize any peculiarities of a single blocking antibody.

E.G7 tumors [3] = assay: RIP-mOVA mice with E.G7 tumors treated with oxaliplatin with or without nutlin; type: in vivo; details: oxaliplatin in the absence of nutlin
Procedure: A classical model of ICD was first tested in which EL4-OVA lymphoma tumors (clone E.G7) are treated with oxaliplatin chemotherapy (Ghiringhelli et al., (2009) Nat. Med. 15: 1170-1178). E.G7 bears the same model antigen as B16-OVA (described with the RIP-mOVA model, above), so it was possible to test the effects of nutlin plus oxaliplatin in the RIP-mOVA model.

E.G7 tumors [4] = assay: E.G7/oxaliplatin model in LysMcre/p53-KO hosts with or without nutlin-3a; type: in vivo, mouse; details: LysMcre/p53 knockout mice
From the text: To test whether the relevant target of nutlin in tumors was specifically the p53 expression in myeloid dendritic cells, the E.G7/oxaliplatin model in LysMcre/p53-KO hosts was used. If mice lacked the relevant p53 in tumor-associated myeloid cells, then LysMcre/p53-KO mice should lose all anti-tumor effect of nutlin. For these studies, mice received congenically-marked OT-I cells to monitor whether T cells were still rescued by IL-12 in tumors.
(§2) Mice with a nuclear-localizing Cre-recombinase knock-in replacing one copy of the Lyz2 gene (Clausen et al., (1999) Transgenic Res. 8: 265-277) (strain 004781, Jax) were crossed as heterozygotes with homozygous p53^flox/flox mice (Marino et al., (2000) Genes Dev. 14: 994-1004) (strain 008462, Jax).
as §1

B16F10 tumors [5] = details: VO-OHpic combined with chemotherapy; Sharma et al. 2015; cited from earlier work
B16F10 tumors [6] = assay: Tumors in knockout hosts treated with VO-OHpic or CTX/VO-OHpic; type: in vivo, mouse; details: VO-OHpic alone, LysMcre/p53-KO mice
From the text: as §2
In vivo tumor studies: The B16F10 and E.G7 (EL4-OVA) cell lines were obtained from ATCC. B16-OVA (B16F10 transfected with full-length chicken ovalbumin) clone MO4 was according to Falo et al. ((1995) Nat. Med. 1: 649-653). B16F10 cells expressing EGFP protein (B16-GFP cells) were derived using lentiviral transfection. Tumor implantation was performed as described (Sharma et al., (2007) J. Clin. Invest. 117: 2570-2582), using 1×10^5 cells for B16F10 and 1×10^6 cells for other cell lines (large inocula were used to ensure rapid tumor engraftment and immune suppression). Tumors were implanted bilaterally in each mouse as a control for reproducible implantation technique; replicate tumor diameters in a single mouse were typically within ±15%. Tumor volume was calculated from orthogonal diameters using the formula V=L×W^2×π/6. Mice received approved euthanasia when tumors reached a size of 300 mm^2 (product of orthogonal diameters); death was never used a planned endpoint in any study.
Tumor implantation was performed as described (Sharma et al., (2007) J. Clin. Invest. 117: 2570-2582). […]

p53 = assay: Tumors in PTEN^Treg-KO mice treated in vivo with pifithrin; parameters: species or system mouse
Ly6c+CD11c^NEG cells = assay: Mouse myeloid-cell maturation co-cultures; type: cell-based; details: exposed to signals from activated T cells
Procedure: Mouse myeloid-cell maturation cultures: Maturation co-cultures were performed in V-bottom wells (Nunc 249952 V96), using RPMI-1640 medium with 10% fetal bovine serum, but no added cytokines. The preferred source of myeloid cells was TDLN or spleen from mice bearing B16F10 or E.G7 tumors. Rapid isolation of cells was important for viability, so cells were disaggregated by passing once through a 40 μm mesh, then stained briefly on ice and FACS-sorted into ice-cold medium using low-shear fluidics and a large nozzle (Mo-Flo cell sorter). […] myeloid cells were enriched by sorting for Ly6c^+ that were CD11c^NEG B220^NEG (to exclude dendritic cells and B cells). For some experiments, myeloid cells were sub-fractionated using sort dates based on expression of Gr-1 and CD11b.
Sorted Ly6c+ myeloid cells were added to co-cultures as previously described (Sharma et al., (2013) Immunity 38: 998-1012). As an inflammatory stimulus for differentiation, CD8^+ effector cells (5×10^4) were FACS-sorted from spleens of either OT-I or pmel-1 mice (both performed equivalently), and added to co-cultures along with 100 nM cognate peptide (SIINFEKL (SEQ ID NO: 1) or hgp100). […]

CD33+ cells = assay: Human myeloid cell cultures matured with recombinant IFNγ; type: cell-based; details: cultured in GM-CSF+IL-6, then IFNγ; FIG. 5A
From the text: (Minneapolis, MN) and isolated by centrifugation over Ficoll-Paque PLUS (GE Healthcare), followed by enrichment for myeloid cells using CD33^+ micro-beads (Miltenyi MACs). Alternatively, myelomonocytic cells were enriched by counter-flow elutriation as previously described (Munn et al., (2002) Science 297: 1867-1870; Munn et al., (2004) J. lmmunol. 172: 4100-4110). Immature myeloid cells were then generated by culture for 7 days as previously described (Koehn et al., (2015) Blood 126: 1621-1628; Lechner et al., (2010) J. lmmunol. 185, 2273-2284). Briefly, PBMC were cultured in RPMI-1640 medium with 10% FBS, 1% Pen/Strep, 1% GlutaMax as well as recombinant human GM-CSF (10 ng/ml, R&D Systems)+IL-6 (10 ng/ml, R&D Systems). Culture growth media was refreshed on days 3 and 6; on day 7, cells were washed and returned to culture in medium without GM-CSF/IL-6. Replicate cultures were then treated for 2 days with or without recombinant human IFNγ (30ng/ml, R&D Systems) to induce maturation, and with or without p53 inhibitor pifithrin-α (10 uM, Sigma). After 48 h, cultures were harvested and stained for CD11b, CD33, phospho-p53-Ser15, IRF5 and BDCA3 (CD141).
Human peripheral-blood mononuclear cells were enriched for monocytic cells, then cultured in GM-CSF+IL-6 as described by Koehn et al. ((2015) Blood 126: 1621-1628). […]

[7] = VO-OHpic alone, WT control mice

## CC(C)C[C@@H](C=O)NC(=O)[C@H](CC(C)C)NC(=O)[C@H](CC(C)C)NC(=O)OCc1ccccc1 [MG-132] (Cbz-Leu-Leu-Leu-aldehyde)
T cells
  T cell proliferation: inhibited proliferation
  p53 levels in activated T cells: progressively increased p53

## O=P1(N(CCCl)CCCl)NCCCO1 (stereo not shown) [cyclophosphamide]
[1]
  interaction of chemotherapy drug with PTEN-inhibitor: synergy
B16F10 tumors [2]
  response of B16 melanoma tumors to chemotherapy alone: highly resistant

## Nc1ccn([C@@H]2O[C@H](CO)[C@@H](O)C2(F)F)c(=O)n1 [gemcytabine]
[1]
  interaction of chemotherapy drug with PTEN-inhibitor: synergy
B16F10 tumors [2]
  response of B16 melanoma tumors to chemotherapy alone: highly resistant

## O=C1[O][Pt]2([NH][C@@H]3CCCC[C@H]3[NH]2)[O]C1=O [oxaliplatin]
E.G7 tumors [3]
  anti-tumor effect: transient regression
  autoimmune diabetes: rapidly died from progressive autoimmune diabetes
E.G7 tumors [4]
  response to oxaliplatin chemotherapy: unable to respond; also recorded: lost all response to treatment

## VO-OHpic
B16F10 tumors [2]; PTEN-inhibitor by itself, large established tumors, FIG. 12
  anti-tumor effect: no effect
B16F10 tumors [2]; [7]
  Ly6c+CD103+ dendritic cells: allowed emergence
  tumor growth: suppressed tumor growth
B16F10 tumors [2]; systems of the disclosure
  enhancement of tumor growth by PTEN-inhibitor: does not enhance the growth of tumors
B16F10 tumors [5]
  destabilization of PTEN+Tregs in tumors: rapid and essentially complete destabilization
B16F10 tumors [6]
  tumor growth: not suppressed

## pifithrin
p53
  emergence of Ly6c+CD103+ dendritic cell subset: selectively prevented the emergence
  immune surveillance of tumors: allowed tumors to escape immune surveillance
Ly6c+CD11c^NEG cells
  differentiation of Ly6c+ MDSCs into Ly6c+CD103+ dendritic cells: inhibited

## recombinant IFNγ: recombinant human IFNγ (R&D Systems) used to induce maturation
CD33+ cells
  maturation of CD33+ cells: rapidly matured into activated cells expressing CD83, CD141, XCR1 and Batf3
